Experimental findings from patent US6706509B2, “Oncoprotein protein kinase” (The Regents of the University of California, priority 1993, dated 2004) are described below.

The subject of experiment [1] is jun-B. Briefly: Northern blot of jun-B expression in Jurkat cells. The class given is cell-based, human. The conditions noted are these: 40 minutes; for effect on jun-B induction by TPA: A23187 1 μg/ml or CsA 100 ng/ml. How it is done: Exponentially growing Jurkat cells (10^6/ml) grown in complete RPMI medium was pretreated with CsA for 15 minutes when applicable, then subjected to various treatments for another 40 minutes. Total cytoplasmic RNA was extracted as previously described (Angel, et al., Cell, 49:729-739, 1987). 10 μg RNA was denatured by incubating with glyoxal for 60 minutes at 55° C. and fractionated on a 1% agarose gel in phosphate buffer. The fractionated RNA was blotted to Zetabind Nylon membrane (CUNO Labs) and hybridized to ^32P-labelled cDNA probes specific for c-jun, jun-B, jun-D, c-fos, α-tubulin and IL-2.
During the first stage of T lymphocyte activation, early response genes are rapidly included (Crabtree, Science, 243:355,361, 1989; Zipfel, et al., Mol Cell Bio., 9:1041-1048, 1989). Induction of jun and fos genes during activation of the Jurkat T cell line was investigated. Two different co-stimulatory paradigms were used, one employing TPA and the Ca^2+ ionophore A23187, and the second based on simultaneous stimulation of the TCR complex with an antibody to its CD3 component (OKT3; Van Wauwe, et al., J. Immunol., 124:2708-2713, 1980) and stimulation of the CD28 auxiliary receptor with an anti-CD28 antibody (9.3; Hansen, et al., Immunogenetics, 10:247-260, 1993; June, et al., Immunol. Today, 11:211-216, 1990). Total cytoplasmic RNA was extracted from Jurkat cells that were incubated with 50 ng/ml TPA (T), 1 μg/ml A23187 (A) or 100 ng/ml cyclosporin A (CsA) for 40 minutes, either alone or in combinations, as indicated. After fractionation of 10 μg samples on an agarose gel and transfer to nylon membrane, the level of c-jun, jun-B, jun-D, c-fos and α-tubulin expression was determined by hybridization to random primed cDNA probes.

The test system of experiment [2] is AP-1 responsive human collagenase promoter (-73Col-LUC). Briefly: AP-1 transcriptional activity, -73Col-LUC luciferase reporter in Jurkat cells. It counts as cell-based. To be noted: for -73Col-LUC luciferase activity, agent administered alone: TPA 50 ng/ml or A23187 1 μg/ml, 9 hours; for -73Col-LUC luciferase activity, two costimuli together: TPA+A23187 or anti-CD3+anti-CD28. As for the experimental part: T Ag Jurkat cells, a derivative of the human Jurkat T-cell line stably transfected with the SV40 large T antigen (a gift from Dr. G. Crabtree) were grown to 10^6/ml, then resuspended at 2×10^7/ml in fresh complete medium. 10^7 cells (0.5 ml) were mixed with reporter plasmids (5 μg, −79 jun-LUC; 10 μg, −73/+63 Col-LUC or −60/+63 Col-LUC; 5 μg IL2-LUC) at room temperature for 10 minutes, then electroporated at 250 V, 960 uF in a 0.4 cm cuvette using a Bio-Rad GenePulser. After electroporation, cells were immediately put on ice for 10 minutes, then resuspended in 10 ml complete medium for 24 hours before stimulation. 0.5 μg of pSRaIIc-Jun were used to transfect 10^7 Jurkat cells. Luciferase activity was determined as described (Deng and Karin, supra., 1993).
The effects of the different stimuli on AP-1 transcriptional activity in Jurkat cells were examined using a truncated, AP-1 responsive, human collagenase promoter (Angel, et al., Cell, 49:729-739, 1987) fused to the luciferase (LUC) reporter gene. Jurkat cells were transfected with 10 μg of either −73Col-LUC or −60Col-LUC reporter plasmids. 24 hours after transfection, the cells were aliquoted into 24 well plates and incubated for 9 hours with 50 ng/ml TPA, 1 μg/ml A23187 or 100 ng/ml CsA, either alone or in combinations, as indicated. The cells were harvested and luciferase activity was determined. The results shown are averages of three experiments done in triplicates.
In general terms: In a reporter assay the amount or activity of a reporter protein is the signal.

Experiment [3] concerns Ha-Ras. Briefly: GTP content of Ha-Ras in 32P-labelled Jurkat cells. It counts as cell-based, human. The conditions noted are these: for Ha-Ras activation measured by increase in GTP content, agent alone: 10 ng/ml TPA, 1 μg/ml anti-CD3 or 2 μg/ml anti-CD28, 2 minutes. How it is done:
Jurkat cells 10×10^6 were labelled for 3 hours with ^32P-orthophosphate (ICN Radiochemicals) at 1 mCi/ml in 5 mM of Na3VO4 phosphate-free DMEM supplemented with 1 mg/ml BSA. Before harvest, cells were stimulated with TPA, 10 ng/ml, A23187, 1 μg/ml anti-CD3 antibody (OKT3), 10 μg/ml, anti-CD28 antibody, 2 μg/ml or their combinations. After treatment for a specified period, cells were washed once immediately with ice cold PBS, twice with ice-cold Tris-Buffered saline (50 mM Tris-HCl, pH 7.5, 20 mM MgCl2, 150 mM NaCl, […] Nonidet P-40/1 μg/ml of aprotinin, leupeptin, pepstatin and 1 mM phenylmethyl sulfonylfluoride). Ras p21 was immunoprecipitated with monoclonal antibody […] (Santa Cruz Biotechnology, Inc., Santa Cruz, Calif.). The GDP/GTP content of Ras was analyzed by TLC as described (Satoh, et al., Proc. Natl. Acad. Sci., USA, 15:5993, 1990) and quantitated with an Ambis radioanalytic image system (Ambis, San Diego, Calif.).
Jurkat cells (2×10^6 cells per point) labeled with 0.4 mCi of ^32P-orthophosphate for 3 hours were incubated with nonspecific antibody (1 μg/ml mouse IgG; control), 1 μg/ml anti-CD3, 2 μg/ml anti-CD28, 10 ng/ml TPA or 500 ng/ml A23187 (A), as indicated. After 2 minutes, the cells were harvested, lysed and Ha-Ras was isolated by immunoprecipitation. The guanine nucleotide bound to Ha-Ras were extracted, separated by thin layer chromatography and quantitiated as described in EXAMPLE 9. The values shown represent the averages of two separate experiments done in duplicates. Jurkat cells were labeled with ^32P-orthophosphate and stimulated with either TPA or anti-CD3 as described above. At the indicated time points, the cells were harvested and the GTP content of Ha-Ras was determined as described directly above.

On to cyclosporin A [CsA], for which, in experiment [1], the “effect on jun-B induction by TPA” value was “not affected”. Also, the “effect on induction of -73Col-LUC” value in experiment [2] (CsA 100 ng/ml with TPA+A23187, 9 hours) was “inhibited”.

For `CCCCCCCCCCCCCC(=O)O[C@@H]1[C@@H](C)[C@@]2(O)[C@@H](C=C(CO)C[C@]3(O)C(=O)C(C)=C[C@@H]23)[C@H]2C(C)(C)[C@]12OC(C)=O` [TPA], the “jun-B expression, agent alone” value in experiment [1] (TPA 50 ng/ml) is listed as “induced”. Further, in experiment [2], the “-73Col-LUC luciferase activity, agent administered alone” value was “marginal effects” and the “-73Col-LUC luciferase activity, two costimuli together” value is reported as “synergistic activation”. Moreover, the “Ha-Ras activation measured by increase in GTP content, agent alone” value in experiment [3] is on record as “activation of Ha-Ras”. In experiment [3] (TPA), the “persistence of Ha-Ras activation” value is on record as “at least 20 minutes”.

Consider “anti-CD3: anti-CD3 monoclonal antibody OKT3”, for which the “-73Col-LUC luciferase activity, two costimuli together” value in experiment [2] was “synergistic activation”. Moreover, the “Ha-Ras activation measured by increase in GTP content, agent alone” value in experiment [3] is on record as “activation of Ha-Ras”. Besides, in experiment [3] (soluble anti-CD3), the “time course of Ha-Ras response” value is “highly transient”.

As to `CNc1ccc2oc(C[C@H]3O[C@@]4(CC[C@H]3C)O[C@H]([C@H](C)C(=O)c3ccc[nH]3)[C@H](C)C[C@H]4C)nc2c1C(=O)O` [A23187], the “effect on jun-B induction by TPA” value in experiment [1] is on record as “not affected”. In experiment [2], the “-73Col-LUC luciferase activity, agent administered alone” value was “marginal effects” and the “-73Col-LUC luciferase activity, two costimuli together” value is recorded as “synergistic activation”. The “Ha-Ras activation by anti-CD3 or TPA, costimulation with anti-CD28 or A23187, respectively” value in experiment [3] is “not augmented”.
